In patent US4605614A, “Method for measuring plasmin” (Nitto Boseki Co., Ltd., priority 1981, dated 1986):

What was measured:
[1] = target: Urokinase (UK) (Homo sapiens, UniProt P00749); assay type: biochemical; conditions: TABLE 4, CHA substrates; So = 0.54; pH 8.2; 37° C., 10 minutes; 1000 IU/ml
Description: (§1) The specificities of the novelly synthesized substrates were tested by reacting them with various enzymes respectively.
(§2) (1) Substrate solution concentration: 35 mmole/liter H2 O
(§3) (2) Buffer: Tris-hydrochloric acid buffer 50 mmole/l, NaCl 150 mmole/l (0.875%) was employed, and the pH for reaction was as follows depending on the enzyme.
(§4) 2,6-Xylenol 7.0 mmole+NaIO4 1.5 mmole/0.2N KOH
(§5) 0.5 ml of the buffer solution and 0.05 ml of the enzyme reagent were taken into a silicon-treated hard glass test tube or a plastic test tube, and preheated in a constant temperature bath at 37° C. for 5 minutes. Thereafter, 0.1 ml of the substrate solution was added to effect the enzymatic reaction at 37° C. for 10 minutes. Exactly after 10 minutes, 2.5 ml of the reaction terminating solution or the terminating and color developing reagent solution was added to terminate the enzymatic reaction, and after allowing to stand at 25° C. for 10 minutes, the absorbance at 405 nm or 645 nm was measured, in which [drawing 49]

[2] = target: Plasmin (PL) (Sus scrofa, UniProt P06867); assay type: biochemical, Pig; conditions: TABLE 4, CHA substrates; So = 0.54; pH 7.4; 37° C., 10 minutes; 0.32 CU/ml
Description: as §2, §3
Plasmin Pig Sigma (U.S.A.)
as §5

[3] = target: Kallikrein (KL) (Sus scrofa, UniProt P00752); assay type: biochemical, Pig; conditions: TABLE 4, CHA substrates; So = 0.54; pH 7.9; 37° C., 10 minutes; 1.0 BAEE-U/ml
Chain of Kallikrein (KL) (P00752 8-246): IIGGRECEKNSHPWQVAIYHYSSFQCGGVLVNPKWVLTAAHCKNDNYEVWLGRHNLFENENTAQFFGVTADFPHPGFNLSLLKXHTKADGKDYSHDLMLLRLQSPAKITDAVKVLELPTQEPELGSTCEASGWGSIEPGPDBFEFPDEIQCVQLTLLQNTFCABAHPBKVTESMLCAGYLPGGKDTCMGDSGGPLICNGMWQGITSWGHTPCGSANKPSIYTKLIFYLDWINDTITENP
Description: as §1, §2, §3, §4, §5

[4] = target: Factor-Xa (FXa) (Bos taurus, UniProt P00743); assay type: biochemical, Cow; conditions: TABLE 4, CHA substrates; So = 0.54; pH 8.4; 37° C., 10 minutes; 0.4 U/ml
Chain of Factor-Xa (FXa) (P00743 41-180): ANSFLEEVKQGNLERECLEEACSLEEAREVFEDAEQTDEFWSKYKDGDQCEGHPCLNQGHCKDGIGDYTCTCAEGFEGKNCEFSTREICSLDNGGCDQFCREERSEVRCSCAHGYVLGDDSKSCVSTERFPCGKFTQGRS
Chain of Factor-Xa (FXa) (P00743 234-492): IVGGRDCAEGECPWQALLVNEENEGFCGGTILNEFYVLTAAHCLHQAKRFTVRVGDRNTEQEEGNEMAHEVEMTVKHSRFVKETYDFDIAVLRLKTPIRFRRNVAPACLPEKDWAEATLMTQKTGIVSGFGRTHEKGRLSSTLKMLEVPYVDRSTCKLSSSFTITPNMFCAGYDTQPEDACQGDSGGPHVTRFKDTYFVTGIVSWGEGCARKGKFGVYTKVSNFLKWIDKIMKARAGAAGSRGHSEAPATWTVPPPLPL
Description: as §1, §2, §3, §4, §5

[5] = target: Thrombin (TH) (Bos taurus, UniProt P00735); assay type: biochemical, Cow; conditions: TABLE 4, CHA substrates; So = 0.54; pH 8.4; 37° C., 10 minutes; 1.0 NIH/ml
Chain of Thrombin (TH) (P00735 44-625): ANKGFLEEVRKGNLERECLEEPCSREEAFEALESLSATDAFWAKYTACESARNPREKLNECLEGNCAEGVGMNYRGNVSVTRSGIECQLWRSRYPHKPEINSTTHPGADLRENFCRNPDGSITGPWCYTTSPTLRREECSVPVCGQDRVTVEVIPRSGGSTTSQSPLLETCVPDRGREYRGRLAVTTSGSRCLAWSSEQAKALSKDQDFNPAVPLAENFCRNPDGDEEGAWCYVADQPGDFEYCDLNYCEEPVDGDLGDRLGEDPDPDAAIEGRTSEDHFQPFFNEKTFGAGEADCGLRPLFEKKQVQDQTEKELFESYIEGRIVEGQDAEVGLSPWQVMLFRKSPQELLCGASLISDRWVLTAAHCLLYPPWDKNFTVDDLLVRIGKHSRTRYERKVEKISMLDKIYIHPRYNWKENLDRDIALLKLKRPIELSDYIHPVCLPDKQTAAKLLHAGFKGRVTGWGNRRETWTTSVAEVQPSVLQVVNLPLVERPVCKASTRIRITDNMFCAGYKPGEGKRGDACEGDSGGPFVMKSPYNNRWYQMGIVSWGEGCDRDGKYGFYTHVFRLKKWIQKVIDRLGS
Description: as §1, §2, §3, §4, §5

[6] = target: plasmin (pig) (Sus scrofa, UniProt P06867); assay: Km, Vmax and Vmax/Km of substrates for plasmin (pig); assay type: biochemical, Porcine (pig); conditions: for Vmax (× 10^-7): TABLE 2, CHA substrates, plasmin (pig), 2,6-xylenol 615 nm; for Relative ratio: TABLE 2, V/Km of each sample divided by that of S2251 (so in the source)
Chain of plasmin (pig) (P06867 97-809): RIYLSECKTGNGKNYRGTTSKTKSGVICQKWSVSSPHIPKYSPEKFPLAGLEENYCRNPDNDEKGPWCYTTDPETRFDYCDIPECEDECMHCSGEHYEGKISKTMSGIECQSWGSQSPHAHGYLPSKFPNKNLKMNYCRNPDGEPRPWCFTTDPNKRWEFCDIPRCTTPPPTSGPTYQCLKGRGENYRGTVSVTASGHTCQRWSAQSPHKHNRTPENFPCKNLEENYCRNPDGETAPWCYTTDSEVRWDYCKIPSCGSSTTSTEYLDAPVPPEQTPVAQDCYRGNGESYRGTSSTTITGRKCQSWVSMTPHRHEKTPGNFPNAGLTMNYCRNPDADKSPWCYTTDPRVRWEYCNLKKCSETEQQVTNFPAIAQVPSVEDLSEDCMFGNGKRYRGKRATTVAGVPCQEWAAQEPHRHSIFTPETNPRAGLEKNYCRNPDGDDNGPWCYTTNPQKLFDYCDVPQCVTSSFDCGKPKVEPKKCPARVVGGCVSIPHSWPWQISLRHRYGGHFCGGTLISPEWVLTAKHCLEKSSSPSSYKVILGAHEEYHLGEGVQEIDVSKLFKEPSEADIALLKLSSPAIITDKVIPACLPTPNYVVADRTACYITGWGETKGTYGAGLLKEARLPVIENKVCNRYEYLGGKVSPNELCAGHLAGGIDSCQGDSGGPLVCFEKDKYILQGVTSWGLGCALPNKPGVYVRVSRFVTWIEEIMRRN

Chain of Plasmin (PL) (P06867 97-809): as above

Row | Compound | Selectivity UK, absorbance (O.D.) at 645 nm [1] [O.D.] | Selectivity PL, absorbance (O.D.) at 645 nm [2] [O.D.] | Selectivity KL, absorbance (O.D.) at 645 nm [3] [O.D.] | Selectivity FXa, absorbance (O.D.) at 645 nm [4] [O.D.] | Selectivity TH, absorbance (O.D.) at 645 nm [5] [O.D.] | Vmax (× 10^-7) [6] | Relative ratio [6]
1 | NCCCC[C@H](NC(=O)[C@H](Cc1ccccc1)NC(=O)[C@H](N)CCCCNC(=O)c1ccc2ccccc2c1)C(=O)Nc1ccc(O)c(C(=O)O)c1 [NPC-9, HD-Lys(NaC)PheLysCHA.2HCl] | 0 | 0.120 | 0.027 | 0.001 | 0 | 13.827 × 10^-7 | 38.270
2 | Cc1cc(C)c(S(=O)(=O)NCCCC[C@@H](N)C(=O)N[C@@H](Cc2ccccc2)C(=O)N[C@@H](CCCCN)C(=O)Nc2ccc(O)c(C(=O)O)c2)c(C)c1 [NPC-10, HD-Lys(Mst)PheLysCHA.2HCl] | 0.001 | 0.344 | 0.010 | 0.002 | 0 | 28.445 × 10^-7 | 94.369
3 | Cc1ccc(S(=O)(=O)Oc2ccc(C[C@@H](N)C(=O)N[C@@H](Cc3ccccc3)C(=O)N[C@@H](CCCCN)C(=O)Nc3ccc(O)c(C(=O)O)c3)cc2)cc1 [NPC-11, HD-Tyr(Tos)PheLysCHA.2HCl] | 0.003 | 0.277 | 0.012 | 0.003 | 0.001 | 17.018 × 10^-7 | 99.532
4 | Cc1ccc(S(=O)(=O)NCCCC[C@@H](N)C(=O)N[C@@H](CC(C)C)C(=O)N[C@@H](CCCCN)C(=O)Nc2ccc(O)c(C(=O)O)c2)cc1 [NPC-12, HD-Lys(Tos)LeuLysCHA.2HBr] | 0.001 | 0.051 | 0.007 | 0.002 | 0.001 | 25.679 × 10^-7 | 23.135
5 | Cc1ccc(S(=O)(=O)Oc2ccc(C[C@@H](N)C(=O)N[C@@H](CC(C)C)C(=O)N[C@@H](CCCCN)C(=O)Nc3ccc(O)c(C(=O)O)c3)cc2)cc1 [NPC-13, HD-Tyr(Tos)LeuLysCHA.2HCl] | 0.001 | 0.041 | 0.004 | 0.001 | 0.002 | 17.991 × 10^-7 | 11.225
6 | NCCCC[C@H](NC(=O)[C@H](Cc1ccccc1)NC(=O)[C@H](N)CCCCNC(=O)c1ccccc1)C(=O)Nc1ccc(O)c(C(=O)O)c1 [NPC-14] | 0.001 | 0.417 | 0.016 | 0.002 | 0 | 33.794 × 10^-7 | 91.036
7 | NCCCC[C@H](NC(=O)[C@H](Cc1ccccc1)NC(=O)[C@H](N)CCCCNS(=O)(=O)c1ccccc1)C(=O)Nc1ccc(O)c(C(=O)O)c1 [NPC-15] | 0 | 0.480 | 0.010 | 0.002 | 0 | 37.927 × 10^-7 | 64.180
8 | NCCCC[C@H](NC(=O)[C@H](Cc1ccccc1)NC(=O)[C@H](N)CCCCNC(=O)Cc1ccccc1)C(=O)Nc1ccc(O)c(C(=O)O)c1 [NPC-16] | 0.001 | 0.325 | 0.012 | 0.002 | 0 | 26.986 × 10^-7 | 68.162
9 | NCCCC[C@H](NC(=O)[C@H](Cc1ccccc1)NC(=O)[C@H](N)CCCCNS(=O)(=O)c1cccc2ccccc12)C(=O)Nc1ccc(O)c(C(=O)O)c1 [NPC-17] | 0 | 0.192 | 0.002 | 0 | 0 | 15.803 × 10^-7 | 23.874
10 | Cc1ccc(S(=O)(=O)NCCC[C@@H](N)C(=O)N[C@@H](Cc2ccccc2)C(=O)N[C@@H](CCCCN)C(=O)Nc2ccc(O)c(C(=O)O)c2)cc1 [NPC-18] | 0.001 | 0.392 | 0.019 | 0.002 | 0 | 35.252 × 10^-7 | 58.558
11 | CCCC(=O)NCCCC[C@@H](N)C(=O)N[C@@H](Cc1ccccc1)C(=O)N[C@@H](CCCCN)C(=O)Nc1ccc(O)c(C(=O)O)c1 [NPC-19] | 0.001 | 0.118 | 0.004 | 0.002 | 0.001 | 8.266 × 10^-7 | 31.117
12 | NCCCC[C@H](NC(=O)[C@H](Cc1ccccc1)NC(=O)[C@H](N)CCCCNC(=O)OCc1ccccc1)C(=O)Nc1ccc(O)c(C(=O)O)c1 [NPC-20] | 0.004 | 0.467 | 0.019 | 0.006 | 0 | 40.725 × 10^-7 | 74.040
13 | CC(C)OC(=O)C[C@@H](N)C(=O)N[C@@H](Cc1ccccc1)C(=O)N[C@@H](CCCCN)C(=O)Nc1ccc(O)c(C(=O)O)c1 [NPC-21] | 0.004 | 0.093 | 0.010 | 0.003 | 0 | 6.802 × 10^-7 | 17.414
14 | NCCCC[C@H](NC(=O)[C@H](Cc1ccccc1)NC(=O)[C@H](N)CC(=O)OC1CCCCC1)C(=O)Nc1ccc(O)c(C(=O)O)c1 [NPC-22] | 0.026 | 0.213 | 0.023 | 0.015 | 0 | 17.991 × 10^-7 | 42.715
15 | NCCCC[C@H](NC(=O)[C@H](Cc1ccccc1)NC(=O)[C@H](N)CCC(=O)NCCc1ccccc1)C(=O)Nc1ccc(O)c(C(=O)O)c1 [NPC-23] | 0.004 | 0.223 | 0.009 | 0.005 | 0 | 18.963 × 10^-7 | 43.045
16 | Cc1ccc(CCNC(=O)CC[C@@H](N)C(=O)N[C@@H](Cc2ccccc2)C(=O)N[C@@H](CCCCN)C(=O)Nc2ccc(O)c(C(=O)O)c2)cc1 [NPC-24] | 0.004 | 0.279 | 0.009 | 0.005 | 0 | 21.637 × 10^-7 | 46.748
17 | CS(=O)(=O)NCCCC[C@@H](N)C(=O)N[C@@H](Cc1ccccc1)C(=O)N[C@@H](CCCCN)C(=O)Nc1ccc(O)c(C(=O)O)c1 [NPC-25] | 0 | 0.185 | 0.006 | 0 | 0 | 15.803 × 10^-7 | 43.613
